The values below come from patent US20050260202A1, “Methods for producing proliferating muscle cells” (The Regents of the University of California, priority 2004, published 2005).

For experiment [1], the target named is murine Sca-1 (stem cell antigen-1) (murine) (UniProt P05533). Kind of experiment: cell-based or functional assay.
Experiment [2] concerns C2C12 myoblasts. Kind of experiment: Myoblast fusion assay in C2C12 cells. Type of experiment: cell-based, mouse. The note with it: C2C12, differentiation conditions, PIPLC 5 U/ml. An excerpt:
(§1) Actively growing C2C12, Sol8, and L6 skeletal myoblasts (ATCC) were maintained in DMEM with 10%, 20%, or 10% FBS, respectively. QM7 quail skeletal myoblasts (kindly provided by Charles Ordahl, UCSF) were maintained in M199 medium with 10% tryptose phosphate and 10% FBS. Myoblast differentiation was induced by culture of confluent monolayers in DMEM with 1% FBS for C2C12 and Sol8 cells, 2% horse serum for L6 cells, or M199 medium with 10% tryptase phosphate and 0.5% FBS for QM7 cells. For PIPLC treatment, 5 U/ml of PIPLC (Sigma) was added into the culture medium when cells reached confluence, and with daily media changes. […]
(§2) Cells were plated on cover slips, cultured under conditions described above in Example 1, and labeled with BrdU for 60 min using Labeling and Detection Kit I (Roche) according to the manufacturer's instructions. […] Immunofluorescence signals were acquired with a Nikon Microphot-FX fluorescence microscope and Spot imaging software. Nuclei from low-power (10×) images were analyzed to quantitate BrdU incorporation and myoblast fusion. Each culture stage was analyzed in triplicate, with data representing the mean of 10 high-power fields. Cell proliferation was calculated as percent BrdU-positive nuclei per field. Cell fusion was calculated as average number of DAPI staining nuclei per myotube.

Experiment [3] deals with C2C12 myoblasts. Kind of experiment: BrdU incorporation (cell proliferation) in C2C12 cells. It is filed as cell-based, mouse. The following applies: C2C12, differentiation conditions, PIPLC 5 U/ml.
Source text: as §1, §2
In general terms: Dividing cells build labelled thymidine or BrdU into new DNA.

The test system of experiment [4] is Sol8 murine myoblasts. Kind of experiment: Myoblast fusion assay in Sol8 cells. Type of experiment: cell-based, mouse. The following applies: Sol8, differentiation conditions, PIPLC 5 U/ml.
Source text: as §1, §2

The subject of experiment [5] is Sol8 murine myoblasts. Kind of experiment: BrdU incorporation in Sol8 cells. It is filed as cell-based, mouse. The following applies: Sol8, differentiation conditions, PIPLC 5 U/ml.
Source text: as §1, §2

Experiment [6] relates to L6 rat myoblasts. Kind of experiment: Myoblast fusion assay in L6 cells. The note with it: L6, differentiation conditions, PIPLC 5 U/ml. Type of experiment: cell-based.
Source text: as §1, §2

Experiment [7] concerns L6 rat myoblasts. Kind of experiment: BrdU incorporation in L6 cells. Type of experiment: cell-based. The following applies: L6, differentiation conditions, PIPLC 5 U/ml.
Source text: as §1, §2

Experiment [8] relates to QM7 avian myoblasts. Kind of experiment: Myoblast fusion assay in QM7 cells. The following applies: QM7, differentiation conditions, PIPLC 5 U/ml. It is filed as cell-based, quail.
Source text: as §1, §2

In experiment [9] the test system is QM7 avian myoblasts. Kind of experiment: BrdU incorporation in QM7 cells. Type of experiment: cell-based, quail. The note with it: QM7, differentiation conditions, PIPLC 5 U/ml.
Source text: as §1, §2

For experiment [10], the system named is Sca-1. Kind of experiment: Sca-1 expression by immunoblot and immunostaining. Type of experiment: cell-based, mouse. The note with it: C2C12 cells. Here is the method:
Immunoblot analysis was performed using previously described methods (Hlaing et al., J Biol Chem, 277:23794-23799, 2002). Briefly, cells were lysed by sonication in lysis buffer (50 mM Tris-HCl, pH 7.5, 150 mM NaCl, 3 mM EDTA, 3 mM EGTA, 1% SDS, 10% glycerol), boiled for 5 min, and centrifuged at 16,000×g for 2 min. Protein concentrations of supernatants were measured by BCA assay (Pierce), and equal amounts of protein (100-200 μg) were separated by SDS-polyacrylamide gel electrophoresis. Immunoblots were analyzed with 5 μg/ml monoclonal antibody against Sca-1 (Pharmingen) or β-actin (Sigma), and 1 μg/ml HRP-conjugated goat-anti mouse IgG (Bio-Rad).
To detect Sca-1, Myf5, MyoD, and myogenin in situ, wild type and stably transfected C2C12 cells were plated on cover slips, grown as described for the indicated lengths of time, and stained with either 2.5 μg/ml monoclonal anti-Sca-1 antibody (clone E13-161.7; Pharmingen) and 4 μg/ml FITC-conjugated goat anti-rat IgG (Pharmingen), or 10 μg/ml rabbit polyclonal anti-Myf5, anti-MyoD, or anti-myogenin antibody (Santa Cruz Biotechnology) and 2 μg/ml FITC-conjugated goat anti-rabbit IgG (Molecular Probes), as previously described (Liu et al., Cell Biochem Biophys, 39:119-131, 2003).
A general note: Immunoblotting shows a protein as a band on a membrane.

Experiment [11] concerns C2C12 cells. Kind of experiment: Fyn mutant assay: GFP-positive myoblasts to myotubes. Type of experiment: cell-based, mouse. The following applies: five days in differentiation medium. An excerpt: This example describes the expression of wild type and mutant Fyn proteins to analyse the role of Fyn in Sca-1-mediated myogenesis. Briefly, a 1615 bp fragment of pCMV-FynDN (Ko et al., J. Biol Chem, 277:46085-46092, 2002), containing the full-length, dominant negative K299M mutant of mouse Fyn, was PCR-amplified using primers 5′-TTATGCGGCC GCATGGGCTGTG TGCAATGTAAGG-3′ (SEQ ID NO:7) and 5′-GCATGCATGC TACAGGTTT TCACCAGGTT GG-3′ (SEQ ID NO:8) and cloned into the NotI/SphI sites of pIRES-hrGFP-1a (Stratagene). The pCMV-FynDN plasmid was kindly provided by Marilyn Resh (Sloan-Kettering Cancer Center). Similarly, a 1.6 kb BamHI fragment of Fyn-Y531F (Maulon et al., Oncogene, 20:1964-1972, 2001), containing the full-length, constitutively active Y531F mutant of mouse Fyn, was cloned into the BamHI site of pIRES-hrGFP-1a (Stratagene). The Fyn-Y531F DNA was generously provided by Patrick Auberger (INSERM). […] Expression of mutants and GFP was determined by immunoblot of whole cell lysates from transfected C2C12 cells with anti-Fyn antibody (Santa Cruz Biotechnology), and immunofluorescence detection of GFP in live cells. […] Data was acquired with a Nikon Microphot-FX fluorescence microscope and Spot imaging software. […] The effect of Fyn mutants on cell fusion was measured as the ratio of GFP-positive mononuclear myoblasts to GFP-positive myotubes (cells with 2 or more nuclei).

Sequence of UniProt P05533 (P05533 27-112 limits assumed): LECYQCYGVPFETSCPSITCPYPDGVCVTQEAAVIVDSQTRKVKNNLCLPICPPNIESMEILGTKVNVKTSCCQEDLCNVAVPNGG

For the substance “monoclonal anti-Sca-1 antibody, clone D7 (Pharmingen)”, in experiment [1], the BrdU positive nuclei (proliferation), E13-161.7 and D7 in combination versus untreated (% BrdU positive nuclei) was 11; the nuclei per myotube (myoblast fusion), E13-161.7 and D7 in combination versus untreated (nuclei per myotube) was 14.
With “phosphatidylinositol-specific phospholipase-C [PIPLC]”, the myoblast fusion is listed as 3±1 nuclei/myotube in [2], 5±1 nuclei/myotube in [4], 2±1 nuclei/myotube in experiment [6] and 1±0.2 nuclei/myotube in experiment [8]. For the same substance, the BrdU incorporation is on record as 37±2 % BrdU positive nuclei in [3], 18±2 % BrdU positive nuclei in experiment [5], 20±2 % BrdU positive nuclei in [7] and 48±5 % BrdU positive nuclei in experiment [9]. For the same substance, the “removal of Sca-1 from cell surface” value in experiment [10] is recorded as “strips Sca-1 from the surface”.
“dominant-negative mutant of Fyn: Full-length dominant negative K299M mutant of mouse Fyn, co-expressed with GFP from pIRES-hrGFP-1a”: the “ratio of transfected myoblasts to myotubes” value in [11] (Sca-1 antisense-expressing cells) is 2.3+/−0.7.
For “constitutively active form of Fyn: Full-length constitutively active Y531F mutant of mouse Fyn, co-expressed with GFP from pIRES-hrGFP-1a”, the “ratio of transfected myoblasts to myotubes” value in experiment [11] (wild type C2C12 cells) is recorded as 4.9+/−1.7.
For “monoclonal rat anti-Sca-1 antibody, clone E13-161.7 (Pharmingen)”, in experiment [1], the BrdU positive nuclei (proliferation), E13-161.7 and D7 in combination versus untreated (% BrdU positive nuclei) was found to be 11; the nuclei per myotube (myoblast fusion), E13-161.7 and D7 in combination versus untreated (nuclei per myotube) came to 14.
